Measurements published in PMC7556730 (Chemico-biological interactions, 2020).
Several values for one entry are separate records, joined by “and”; a condition that tells them apart may be missing. Equal values may be shown once. Marks after values point to notes of the source that are not given here. Each block holds one molecule with its values, some of them ahead of it.

What was measured:
microsomal CESs = experiment: Microsomal inhibition study with the CES inhibitor benzil; format: in vitro ADME, Sprague Dawley rats
cytosolic GSTs = experiment: Cytosolic inhibition study with the GST inhibitor ethacrynic acid; format: in vitro ADME, Sprague Dawley rats; details: for benoxacor depletion in control incubations: ethacrynic acid controls; for percent of benoxacor remaining: 5 minutes
[1] = tested on: hepatic cytochrome P450 enzymes (CYPs) in rat liver microsomes; experiment: Microsomal incubations with benoxacor in the presence of NADPH; format: in vitro ADME, Sprague Dawley rats; details: for percentage of benoxacor remaining: 0.1 mg/mL protein, 0.5 mM NADPH, 5 μM benoxacor
[2] = tested on: cytochrome P450 enzymes (CYPs); experiment: as above; format: in vitro ADME, Sprague Dawley rats; details: Sprague-Dawley, rat, liver microsomes
[3] = tested on: glutathione S-transferases (GSTs) in rat liver cytosol; experiment: Cytosolic incubations with benoxacor in the presence of GSH; format: in vitro ADME, Sprague Dawley rats; details: for percentage of benoxacor remaining: 1 mg/mL protein, 5 mM GSH, 5 μM benoxacor
[4] = tested on: glutathione S-transferases (GSTs); experiment: as above; format: in vitro ADME, Sprague Dawley rats; details: Sprague-Dawley, rat, liver cytosol
[5] = tested on: microsomal carboxylesterases (CESs); experiment: Incubations of active microsomes without NADPH; format: in vitro ADME, Sprague Dawley rats; details: male, Sprague-Dawley, rat, liver microsomes
[6] = tested on: microsomal carboxylesterases (CESs) in rat liver microsomes; experiment: Incubations of active microsomes without NADPH; format: in vitro ADME, Sprague Dawley rats
[7] = cited from earlier work

SMILES: O=C(C(=O)c1ccccc1)c1ccccc1 [benzil, Benzil, reference compound]
inhibition of the loss of benoxacor by the CES inhibitor (microsomal CESs; male rat liver microsomes without NADPH, 30 minutes, 5, 50, 500 nM): significantly inhibited

benoxacor depletion in control incubations (cytosolic GSTs; 10 μM): 100±1% | benoxacor depletion in control incubations (cytosolic GSTs; 100 μM): 102±1% | benoxacor depletion in control incubations (cytosolic GSTs; 1000 μM): 100±1% | percent of benoxacor remaining (cytosolic GSTs; female rat cytosol with GSH, 1000 μM ethacrynic acid): 98±2% | percent of benoxacor remaining (cytosolic GSTs; female rat cytosol with GSH, without inhibitor): 71±3% | percent of benoxacor remaining (cytosolic GSTs; male rat preparations with GSH, with ethacrynic acid): 96±2% | percent of benoxacor remaining (cytosolic GSTs; male rat preparations with GSH, without inhibitor): 64±1% | CYP Scaled CLint ([1]; female rat): 57.80 mL/min/g liver | enantiomeric fraction (EF = A1/(A1+A2)) ([1]; female rat liver microsomes with NADPH, 30 minutes): 0.67±0.01 and 0.67 | enantiomeric fraction (EF = A1/(A1+A2)) ([1]; female rat liver microsomes with NADPH, start of 30-minute time-course): 0.48 | percentage of benoxacor remaining ([1]; female rat liver microsomes, 30 minutes): 48±1% | CYP Scaled CLint ([1]; male rat): 50.13 mL/min/g liver | enantiomeric fraction (EF = A1/(A1+A2)) ([1]; male rat liver microsomes with NADPH, 30 minutes): 0.60±0.01 and 0.60 | enantiomeric fraction (EF = A1/(A1+A2)) ([1]; male rat liver microsomes with NADPH, start of 30-minute time-course): 0.48 | percentage of benoxacor remaining ([1]; male rat liver microsomes, 30 minutes): 45±1% | microsomal CLint ([2]; female): 1280 µL/min/mg | microsomal CLint ([2]; male): 1110 µL/min/mg | enantiomeric fraction (EF) ([3]; female rat liver cytosol with GSH, 30 minutes): 0.54±0.01 | enantiomeric fraction (EF) ([3]; female rat liver cytosol with GSH, start of 30-minute time-course): 0.48 | percentage of benoxacor remaining ([3]; female rat liver cytosol, 30 minutes): 18±2% | GST Scaled CLint ([3]; female rat, significantly different from male (p = 0.0038)): 25.87^a mL/min/g liver | GST Scaled CLint ([3]; male rat): 40.18 mL/min/g liver | enantiomeric fraction (EF) ([3]; male rat liver cytosol with GSH, 30 minutes): 0.43±0.01 and 0.43 | enantiomeric fraction (EF) ([3]; male rat liver cytosol with GSH, start of 30-minute time-course): 0.47 | percentage of benoxacor remaining ([3]; male rat liver cytosol, 30 minutes): 9±2% | microsomal CLint ([4]; female): 280 µL/min/mg | microsomal CLint ([4]; male): 440 µL/min/mg | benoxacor depletion in control incubations (microsomal CESs; benzil controls, 5, 50 and 500 nM): 100±1% | depletion of benoxacor in the presence of benzil (microsomal CESs; male rat liver microsomes without NADPH, 30 minutes, benzil 5 to 500 nM): not depleted | percent of benoxacor remaining (microsomal CESs; male rat liver microsomes without NADPH, 30 minutes, without benzil): 92±2% | microsomal CLint [5]: 150 µL/min/mg | enantiomeric fraction (EF) ([6]; active female rat microsomes without NADPH, 30 minutes): 0.47 | enantiomeric fraction (EF) ([6]; active female rat microsomes without NADPH, initial value): 0.48 | enantiomeric fraction (EF) ([6]; active male rat microsomes without NADPH, initial value): 0.48 | CES Scaled CLint ([6]; male rat): 6.74 mL/min/g liver
SMILES: CC1COc2ccccc2N1C(=O)C(Cl)Cl (stereo not shown) [benoxacor, Benoxacor]
experimental solubility [7]: 22 ± 1.7 µg/mL
